Test results taken from US8940310B2, “Methods of treatment using TLR7 and/or TLR9 inhibitors” (Dynavax Technologies Corporation, priority 2010, dated 2015).
[I] = hypoxanthine (inosine); d = 2'-deoxy (DNA); m = 2'-O-methyl

System: human B-cells
Assay: Human B-cells cultured in the presence of IRPs, IL-6
[1] = Experiment # 10, Max Conc 2.0 uM
[2] = Experiment # 11, Max Conc 2.0 uM
[3] = Experiment # 4, Max Conc 4.0 uM
[4] = Experiment # 7, Max Conc 4.0 uM
[5] = Experiment # 5, Max Conc 4.0 uM
[6] = Experiment # 6, Max Conc 4.0 uM
[7] = Experiment # 8, Max Conc 2.0 uM
[8] = Experiment # 2, Max Conc 4.0 uM

Experimental: For the human B-cell assay, B-cells were purified from total blood cells obtained from healthy donors using magnetic beads (CD19 positive). Cells were resuspended in fresh medium (RPMI 1640 with 10% fetal calf serum, 50 units/mL penicillin, 50 μg/mL streptomycin, and 2 mM glutamine). At 48 hours, supernatants were collected and cytokine levels, IL-6, were measured using immunoassay.
To further investigate the effect of IRPs on B-cell stimulatory activity, a wide variety of IRP sequences were assayed for IL-6, along with positive and negative controls. The experiment was performed as described in Example 1 using doses of IRP of either 4.0 μM or 2.0 μM. The positive control was an immunostimulatory sequence (ISS) with SEQ ID NO:157. […] The results are presented as the average normalized IL-6 response over several experiments.

5′-UGC TGC TCC TGG AGI GGT GTT GT (DNA UGCTGCTCCTGGAGNGGTGTTGT; sugars from the 5' end m3 d20, [I] at 15, backbone not given here) [SEQ ID NO:182]
Normalized IL-6 Response (Percentage of Positive Control) [1]: 53%

5′-UGC TGC TCC TGG AGI GGT TGT (DNA UGCTGCTCCTGGAGNGGTTGT; sugars from the 5' end m3 d18, [I] at 15, backbone not given here) [SEQ ID NO:125]
Normalized IL-6 Response (Percentage of Positive Control) [2]: 38%

5′-UGC TGC TCC TGG AGI GGT TGT AAG T (DNA UGCTGCTCCTGGAGNGGTTGTAAGT; sugars from the 5' end m3 d22, [I] at 15, backbone not given here) [SEQ ID NO:130]
Normalized IL-6 Response (Percentage of Positive Control) [1]: 49%

5′-UGCTGCTCCTTGAGGGGTTGTTTGT (DNA NNNTGCTCCTTGAGGGGTTGTTTGT; listed as DNA, chemistry not fully specified) [SEQ ID NO:107]
Normalized IL-6 Response (Percentage of Positive Control) [3]: 43% | Normalized IL-6 Response (Percentage of Positive Control) [4]: 43%

5′-UGCTGCTCCTTGAGGGGTTGUU UG U (DNA UGCTGCTCCTTGAGGGGTTGUUUGU; sugars from the 5' end m3 d16 m6, backbone not given here) [SEQ ID NO:104]
Normalized IL-6 Response (Percentage of Positive Control) [3]: 7% | Normalized IL-6 Response (Percentage of Positive Control) [4]: 7%

5′-UGC TGC TCC TTG AGI GG (DNA UGCTGCTCCTTGAGNGG; sugars from the 5' end m3 d14, [I] at 15, backbone not given here) [SEQ ID NO:117]
Normalized IL-6 Response (Percentage of Positive Control) [5]: 17% | Normalized IL-6 Response (Percentage of Positive Control) [6]: 13%

5′-UGC TGC TCC TTG AGI GGT GTT GT (DNA UGCTGCTCCTTGAGNGGTGTTGT; sugars from the 5' end m3 d20, [I] at 15, backbone not given here) [SEQ ID NO:180]
Normalized IL-6 Response (Percentage of Positive Control) [1]: 46%

5′-UGC TGC TCC TTG AGI GGT TGT (DNA UGCTGCTCCTTGAGNGGTTGT; sugars from the 5' end m3 d18, [I] at 15, backbone not given here) [SEQ ID NO:114]
Normalized IL-6 Response (Percentage of Positive Control) [3]: 40% | Normalized IL-6 Response (Percentage of Positive Control) [5]: 39% | Normalized IL-6 Response (Percentage of Positive Control) [6]: 39% | Normalized IL-6 Response (Percentage of Positive Control) [4]: 40%

5′-UGC TGC TCC TTG AGI GGT TGT (DNA UGCTGCTCCTTGAGNGGTTGT; sugars from the 5' end m3 d18, [I] at 15, backbone not given here) [SEQ ID NO:126]
Normalized IL-6 Response (Percentage of Positive Control) [2]: 37%

5′-UGC TGC TCC TTG AGI GGT TGT (DNA UGCTGCTCCTTGAGNGGTTGT; sugars from the 5' end m3 d18, [I] at 15, backbone not given here) [SEQ ID NO:127]
Normalized IL-6 Response (Percentage of Positive Control) [1]: 46%

5′-UGC TGC TCC TTG AGI GGT TGT AAG T (DNA UGCTGCTCCTTGAGNGGTTGTAAGT; sugars from the 5' end m3 d22, [I] at 15, backbone not given here) [SEQ ID NO:129]
Normalized IL-6 Response (Percentage of Positive Control) [1]: 51%

5′-UGCTTGTCCTGGAGGGGTTGT (DNA NNNTTGTCCTGGAGGGGTTGT; listed as DNA, chemistry not fully specified) [SEQ ID NO:87]
Normalized IL-6 Response (Percentage of Positive Control) [5]: 16% | Normalized IL-6 Response (Percentage of Positive Control) [6]: 12%

5′-UGC TTG TCC TGG AGI GGT GTT GT (DNA UGCTTGTCCTGGAGNGGTGTTGT; sugars from the 5' end m3 d20, [I] at 15, backbone not given here) [SEQ ID NO:124]
Normalized IL-6 Response (Percentage of Positive Control) [7]: 33%

5′-UGC TTG TCC TGG AGI GGT TG-HEG-T (DNA NNNTTGTCCTGGAGNGGTTGNT; inosine, internal HEG spacer, chemistry not fully specified) [SEQ ID NO:142]
Normalized IL-6 Response (Percentage of Positive Control) [8]: 35% | Normalized IL-6 Response (Percentage of Positive Control) [7]: 22%

5′-UGC TTG TCC TGG AGI GGT TGT (DNA UGCTTGTCCTGGAGNGGTTGT; sugars from the 5' end m3 d18, [I] at 15, backbone not given here) [SEQ ID NO:123]
Normalized IL-6 Response (Percentage of Positive Control) [8]: 35% | Normalized IL-6 Response (Percentage of Positive Control) (Experiment # 9, Max Conc 2.0 uM): 35%

5′TGC TCC TTG AGI GGT TGT TTG T-3′ (DNA TGCTCCTTGAGNGGTTGTTTGT; DNA, [I] at 12, backbone not given here) [SEQ ID NO:63]
Normalized IL-6 Response (Percentage of Positive Control) [3]: 46% | Normalized IL-6 Response (Percentage of Positive Control) [5]: 48% | Normalized IL-6 Response (Percentage of Positive Control) [6]: 41% | Normalized IL-6 Response (Percentage of Positive Control) [4]: 46%
